In patent US20150258129A1, “Method for Increasing the Activity of Lysosomal Enzymes” (Mount Sinai School of Medicine of New York University, priority 1998, published 2015):
Residue numbers refer to the chain shown, from its start.

How the values were obtained:
mutant (R301Q) α-Gal A = target: T1, mutant (R301Q) α-Gal A (Homo sapiens, UniProt P06280, R301Q); details: oral administration, mice overexpressing mutant (R301Q) α-Gal A; cited from earlier work
T1 construct: host or cells: transgenic mice (organs)
T1 sequence (P06280 32-429 R301Q): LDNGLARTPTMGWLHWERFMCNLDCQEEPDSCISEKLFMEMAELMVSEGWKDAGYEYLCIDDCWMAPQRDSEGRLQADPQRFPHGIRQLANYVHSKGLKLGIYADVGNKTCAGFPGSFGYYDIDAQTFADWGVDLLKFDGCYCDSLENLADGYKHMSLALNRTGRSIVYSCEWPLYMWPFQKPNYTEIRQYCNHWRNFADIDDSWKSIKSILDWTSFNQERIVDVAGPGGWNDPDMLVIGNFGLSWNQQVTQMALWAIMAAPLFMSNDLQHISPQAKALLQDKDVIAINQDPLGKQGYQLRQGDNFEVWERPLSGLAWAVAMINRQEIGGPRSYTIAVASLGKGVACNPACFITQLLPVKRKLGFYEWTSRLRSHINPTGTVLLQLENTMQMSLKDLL

mutant α-Gal A (R301Q) [1] = target: T2, mutant α-Gal A (R301Q) (Homo sapiens, UniProt P06280, R301Q); experiment: Intracellular enhancement of α-Gal A activity in Fabry lymphoblasts; assay type: cell-based; parameters: endogenous in cells; host or cells: Epstein-Barr virus-transformed lymphoblasts from a Fabry patient (R301Q)
T2 sequence (P06280 32-429 R301Q): T1 sequence (P06280 32-429 R301Q)
Procedure: FIG. 4B depicts results in which each inhibitor was added to the culture medium of R301Q lymphoblasts at a concentration of 100 μM. Cells were subsequently incubated for 4 days. After being washed twice with phosphate-buffered saline, the intracellular enzyme activity was determined with 4-MU-α-Gal as the substrate.
R301Q lymphoblasts were cultured with DGJ (4) ([…]), α-allo-HNJ (9) (▪), α-galacto-HNJ (10) (▴), or β-1-C-butyl-DGJ (16) (♦) at 1-1000 μM for 4 days before being collected for enzyme assay.
In FIG. 6B, R301Q lymphoblasts were cultured with calystegine B2 (18) and the results are shown therein. In FIG. 6C, R301Q lymphoblasts were cultured with N-methyl calystegine A3 (19) and the results are shown therein. In FIG. 6D R301Q lymphoblasts were cultured with N-methyl calystegine B2 (20) at 100-1000 μM for 4 days before being collected for enzyme assay and the results are shown therein.
(§1) The Epstein-Barr virus-transformed lymphoblast lines from a normal adult and a Fabry patient with R301Q mutation in α-Gal A (38) were cultured in RPMI-1640 medium (Nissui Pharmaceutical Co., Tokyo, Japan) supplemented with 10% fetal calf serum (FCS) at 37° C. under 5% CO2. Human fibroblasts from Gaucher and GM1-gangliosidosis patients were cultured in McCoy 5A medium supplemented with 10% FCS at 37° C. under 5% CO2.
Cells were cultured in the presence or absence of inhibitor for 4 days. After being washed twice with phosphate-buffered saline (PBS), the cells were harvested and homogenized in 200 μl of H2O, and 10 μl of the supernatant obtained by centrifugation at 10,000 g was incubated at 37° C. with 50 μl of the substrate solution composed by 6 mM 4-methylumbelliferyl α-D-galactoside (4-MU-α-Gal) and 90 mM N-acetylgalactosamine in 0.1 M citrate buffer (pH 4.5) for enzyme assay. One unit of intracellular enzyme activity was defined as one nmol of 4-methylumbelliferone released per hour at 37° C.

human lysosomal α-Gal A = target: T3, human lysosomal α-Gal A (Homo sapiens, UniProt P06280); experiment: In vitro inhibition of α-Gal A (recombinant, expressed in Sf-9 insect cells); assay type: biochemical
T3 construct: made in house; host or cells: Sf-9 insect cells, recombinant baculovirus
T3 sequence (P06280 32-429): T1 sequence (P06280 32-429 R301Q) with Q270R

[2] = test system: globotriaosylceramide metabolism; experiment: Intracellular globotriaosylceramide metabolism with inhibitor in the medium; assay type: cell-based; details: 20 μM in the medium
mutant α-Gal A (R301Q) [3] = target: T2, mutant α-Gal A (R301Q); parameters: endogenous in cells; host or cells: Epstein-Barr virus-transformed lymphoblasts from a Fabry patient (R301Q); details: R301Q or Q279E mutations; cited from earlier work
mutant α-Gal A (R301Q) [4] = target: T2, mutant α-Gal A (R301Q); details: neutral pH; cited from earlier work
[5] = test system: lysosomal acid β-galactosidase (β-Gal); experiment: Intracellular enhancement of β-Gal activity in GM1-gangliosidosis fibroblasts; assay type: cell-based, human
Procedure: In FIG. 7A, GM1-gangliosidosis fibroblasts were cultured with DGJ (4) at 500 μM for 5 days before being collected for enzyme assay. In FIG. 7B, GM1-gangliosidosis fibroblasts were cultured with 4-epi-isofagomine (21) at 50 μM for 5 days before being collected for enzyme assay. Strains BGF-1 and BGF-6 were diagnosed as infantile type, and all others were juvenile or adult types.
as §1
Cells were cultured in the presence or absence of inhibitor for 5 days. After being washed twice with PBS, the cells were harvested and homogenized in 200 μl of H2O, and 10 μl of the supernatant obtained by centrifugation at 10,000 g was incubated at 37° C. with 50 μl of the substrate solution of 1 mM 4-methylumbelliferyl β-D-galactoside (4-MU-β-Gal) in 0.1 M citrate buffer (pH 4.5) for enzyme assay. One unit of intracellular enzyme activity was defined as one nmol of 4-methylumbelliferone released per hour at 37° C.

[6] = target: coffee bean α-galactosidase (Coffea arabica, UniProt Q42656); details: cited from earlier work
almond β-galactosidase = details: cited from earlier work
[7] = target: T4, glucocerebrosidase (β-Glu), N370S/N370S (Homo sapiens, UniProt P04062, N409S); experiment: Intracellular enhancement of β-Glu activity in Gaucher fibroblasts (N370S/N370S); assay type: cell-based
T4 construct: endogenous in cells; host or cells: human Gaucher patient fibroblasts, genotype N370S/N370S
T4 sequence (P04062 40-536 N409S): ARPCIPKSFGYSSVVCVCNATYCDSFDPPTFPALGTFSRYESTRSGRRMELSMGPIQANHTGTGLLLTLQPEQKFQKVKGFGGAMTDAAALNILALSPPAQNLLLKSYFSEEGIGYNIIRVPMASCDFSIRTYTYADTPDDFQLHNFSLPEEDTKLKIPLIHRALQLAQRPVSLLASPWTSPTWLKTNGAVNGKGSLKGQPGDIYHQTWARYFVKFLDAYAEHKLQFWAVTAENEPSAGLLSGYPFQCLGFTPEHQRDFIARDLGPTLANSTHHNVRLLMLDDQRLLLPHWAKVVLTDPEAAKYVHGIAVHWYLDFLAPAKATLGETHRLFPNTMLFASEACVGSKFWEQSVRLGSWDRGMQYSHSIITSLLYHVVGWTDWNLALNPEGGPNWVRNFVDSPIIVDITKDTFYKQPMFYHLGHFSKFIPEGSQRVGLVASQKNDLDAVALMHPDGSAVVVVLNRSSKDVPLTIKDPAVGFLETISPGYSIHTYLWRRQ

Chain of coffee bean α-galactosidase (Q42656 16-378): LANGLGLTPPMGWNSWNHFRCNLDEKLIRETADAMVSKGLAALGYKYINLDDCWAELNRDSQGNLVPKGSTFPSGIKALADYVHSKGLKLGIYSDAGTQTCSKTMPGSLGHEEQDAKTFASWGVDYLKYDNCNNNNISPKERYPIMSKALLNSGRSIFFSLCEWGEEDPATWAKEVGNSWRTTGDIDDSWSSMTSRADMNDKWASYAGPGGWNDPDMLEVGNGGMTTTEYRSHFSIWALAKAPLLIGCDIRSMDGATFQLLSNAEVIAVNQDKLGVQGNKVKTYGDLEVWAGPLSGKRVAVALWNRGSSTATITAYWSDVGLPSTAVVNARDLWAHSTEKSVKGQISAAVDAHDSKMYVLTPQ

SMILES | enzyme activity in major organs of transgenic mice (mutant (R301Q) α-Gal A) | α-Gal A enzyme activity in R301Q lymphoblasts reached, % of normal (mutant α-Gal A (R301Q) [1]; 100 μM, 4 days) | increase of α-Gal A enzyme activity in R301Q lymphoblasts (mutant α-Gal A (R301Q) [1]; inhibitor at 100 μM, 4 days) | α-Gal A activity in R301Q lymphoblasts with increasing inhibitor concentration (mutant α-Gal A (R301Q) [1]; range 1-100 μM, FIG. 5) | inhibition mode toward α-Gal A (Lineweaver-Burk plots) (human lysosomal α-Gal A) | intracellular inhibition of globotriaosylceramide metabolism [2] | mutant enzyme activity in lymphoblasts from Fabry patients (mutant α-Gal A (R301Q) [3]) | in vitro stability of mutant α-Gal A (R301Q) (mutant α-Gal A (R301Q) [4]) | increase of residual β-Gal activity in BGF-7 fibroblasts ([5]; 500 μM, 5 days, FIG. 7A) [fold] | β-Gal enhancement effect in fibroblasts of infant type disease (BGF-1 and BGF-6) ([5]; DGJ 500 μM, 4-epi-isofagomine 50 μM, 5 days) | intracellular β-Gal activity in GM1-gangliosidosis fibroblasts (summary) ([5]; concentration ranges of 50-500 μM) | inhibition of coffee bean α-galactosidase (in words) [6] | inhibition of almond β-galactosidase (in words) (almond β-galactosidase) | increase of intracellular β-Glu activity in Gaucher fibroblasts ([7]; N370S/N370S, 1-50 μM in the culture medium, FIG. 8A) | residual β-Glu activity in Gaucher cells, time course ([7]; N370S/N370S, day 1 or 2, FIG. 8B) | increase of β-Glu activity in Gaucher cells, time course ([7]; N370S/N370S, day 5, FIG. 8B) | β-Glu enhancement effect at high concentration ([7]; N370S/N370S, higher than 50 μM) | intracellular β-Glu activity in Gaucher fibroblasts (summary) ([7]; concentration ranges of 0.05-100 μM)
OC[C@H]1NC[C@H](O)[C@@H](O)[C@H]1O [compound 4, 1-Deoxygalactonojirimycin] | substantially elevated the enzyme activity | 49 % of normal | about 14 fold | elevated with increasing inhibitor concentration | competitive inhibitors | did not cause intracellular inhibition | enhanced the mutant enzyme activity | effectively increased in vitro stability | 27 | not efficient | effectively enhance | extremely powerful inhibitor | – | – | – | – | – | –
OC[C@H]1CNC[C@@H](O)[C@@H]1O [compound 33, isofagomine] | – | – | – | – | – | – | – | – | – | – | – | – | potent inhibitor | 55-80% | did not change | more than 80% | nullified the enhancement effect | effectively enhance
